According to patent publication US20220178931A1, “Sensor” (The University of Bristol, priority 2019, published 2022):

How the values were obtained:
[1] = DPH reporter dye binding to alpha-helical barrel lumen (fluorescence titration); details: DPH 1 μM incubated with alpha-helical barrel 0.5-500 μM for up to 2 hours; fluorescent signal
Procedure: (§1) The dyes 1,6-diphenyl-1,3,5-hexatriene (DPH) and 6-propionyl-2-dimethylaminonaphthalene (prodan) were assayed against a number of alpha-helical barrels to determine their dissociation constants, KD. DPH or prodan (1 μM) was incubated with varying concentrations of alpha-helical barrel (0.5-500 μM) for up to 2 hours, and the fluorescent signal measured at the corresponding emission wavelength.

[2] = DPH displacement from alpha-helical barrel, competitive inhibition assay, analyte retinol; assay type: binding; details: barrel incubated with DPH or TMA-DPH; analyte 0.05-300 μM; fluorescence; read-out: Retinol K1
Procedure: (§2) The four analytes below were selected based on having hydrophobic properties and being able to adopt an elongate configuration, as these were postulated to have the best chance of displacing a reporter dye.
(§3) DPH was used as the reporter dye, and displacement of DPH was recorded using a standard competitive inhibition assay. In other words, the ability of an analyte to inhibit DPH binding was recorded by the inhibition constant Ki. Alpha-helical barrels were incubated with DPH, or its cationic variant 1-(4-trimethylammoniumphenyl)-6-phenyl-1,3,5-hexatriene p-toluenesulfonate (TMA-DPH). Analyte was added (0.05-300 μM) and the fluorescence signal measured.

[3] = Prodan reporter dye binding to alpha-helical barrel lumen (fluorescence titration); details: for Kd: prodan 1 μM incubated with alpha-helical barrel 0.5-500 μM for up to 2 hours, fluorescent signal, dash = did not bind; for prodan binding to alpha-helical barrel (in words): summary of KD table
Procedure: as §1

[4] = DPH displacement from alpha-helical barrel, competitive inhibition assay, analyte farnesol; details: barrel incubated with DPH or TMA-DPH; analyte 0.05-300 μM; fluorescence; dash = no competitive binding observed; read-out: Famesol K1
Procedure: as §2, §3

[5] = DPH displacement from alpha-helical barrel, competitive inhibition assay, analyte palmitic acid; assay type: binding; details: barrel incubated with DPH or TMA-DPH; analyte 0.05-300 μM; fluorescence; read-out: Palmitic acid K1
Procedure: as §2, §3

[6] = DPH displacement from alpha-helical barrel, competitive inhibition assay, analyte beta-carotene; details: barrel incubated with DPH or TMA-DPH; analyte 0.05-300 μM; fluorescence; dash = no competitive binding observed; read-out: B-carotene K1
Procedure: as §2, §3

## GEIAQALREIAKALREIAWALREIAQALRG [CC-Hept, 7 helices in barrel]
[1]
  Kd: 8.9 ± 2.2 µM
[2]
  Ki: 4 ± 0.7 µM
[3]
  Kd: 40.5 ± 4 µM
[4]
  Ki: 0.6 ± 0.2 µM
[5]
  Ki: 0.9 ± 0.3 µM
[6]
  Ki: 12.1 ± 5.4 µM

## GKIEQILQKIEKILQKIEWILQKIEQILQG [CC-Pent, alpha helix self-assembling into alpha-helical barrel]
[1]
  Kd: 22.4 ± 4.3 µM
[2]
  Ki: 14.8 ± 4.1 µM
[3]
  Kd: > 500 µM
  prodan binding to alpha-helical barrel (in words): did not bind
[4]
  Ki: > 300 µM
[5]
  Ki: 1.1 ± 0.5 µM
[6]
  Ki: > 300 µM

## GEIAKSLKEIAKSLKEIAWSLKEIAKSLKG [CC-Hex2, 6 helices in barrel]
[1]
  Kd: 9.5 ± 1.1 µM
[2]
  Ki: 4.6 ± 1.9 µM
[3]
  Kd: 39.2 ± 6.8 µM
[4]
  Ki: 8.6 ± 1.3 µM
[5]
  Ki: 1.1 ± 0.3 µM
[6]
  Ki: > 300 µM

## GELKAIAQELKAIAKELKAIAWELKAIAQG [CC-Hex, 6 helices in barrel]
[1]
  Kd: 7.1 ± 1.3 µM
[2]
  Ki: 6.4 ± 3.2 µM
[3]
  Kd: > 500 µM
  prodan binding to alpha-helical barrel (in words): did not bind
[4]
  Ki: 23.9 ± 2.4 µM
[5]
  Ki: 1 ± 0.3 µM
[6]
  Ki: > 300 µM
